Patent US20260217711A1, “TRIAZOLOPYRIDINYL ETHER LINKED COMPOUNDS AS KINASE INHIBITORS” (Bristol-Myers Squibb Company, priority 2023, published 2026)
pIC50: −log10 of the molar value. Like-named read-outs stand apart in the source and are kept apart here.

Test system: MLKL phosphorylation (pMLKL) in HT29-L23 cells
Test: MLKL Phosphorylation High-Content Assay
Assay type: cell-based
Settings: necroptosis induced with human TNFα, SMAC mimetic and Z-VAD, 6 h, read-out: LE pMLKL HC IC50
Outline: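 HT29-L23 cells incubated 6 h at 37° C before detection of phospho-MLKL by immunostaining with anti-phospho-MLKL antibody (1:1000 in PBS/0.1% BSA, overnight at 4° C). Readout by high-content imaging with compartmental image analysis.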

SMILES | pIC50 | pIC50 (Homo sapiens)
Cc1ccc(-c2ccn3nc(N)nc3c2)c(F)c1OCCC(F)C(O)c1ccc(F)cc1 (single isomer, unassigned) [Example 107, 4-(3-(2-amino-[1,2,4]triazolo[1,5-a]pyridin-7-yl)-2-fluoro-6-methylphenoxy)-2-fluoro-1-(4-fluorophenyl)butan-1-ol] | 8.92 | –
Nc1nc2cc(-c3ccc(C(F)(F)F)c(OCCC(F)C(O)c4ccc(F)cc4)c3F)ccn2n1 (single isomer, unassigned) [Example 111, 4-(3-(2-amino-[1,2,4]triazolo[1,5-a]pyridin-7-yl)-2-fluoro-6-(trifluoromethyl)phenoxy)-2-fluoro-1-(4-fluorophenyl)butan-1-ol] | 7.54 | –
CC(O)(c1ccccc1F)C(F)(F)CCOc1c(F)ccc(-c2ccn3nc(N)nc3c2)c1F (single isomer, unassigned) [Example 124, 5-(3-(2-amino-[1,2,4]triazolo[1,5-a]pyridin-7-yl)-2,6-difluorophenoxy)-3,3-difluoro-2-(2-fluorophenyl)pentan-2-ol] | 6.80 | –
CC(O)(c1ccc(F)cc1)C(F)CCOc1c(F)ccc(-c2ccn3nc(N)nc3c2)c1F (single isomer, unassigned) [Example 97, 5-(3-(2-amino-[1,2,4]triazolo[1,5-a]pyridin-7-yl)-2,6-difluorophenoxy)-3-fluoro-2-(4-fluorophenyl)pentan-2-ol] | 7.54 | –
CC(O)(c1ccc(Cl)cc1)C(F)(F)CCOc1c(F)ccc(-c2ccn3nc(N)nc3c2)c1F (single isomer, unassigned) [Example 46, 5-(3-(2-amino-[1,2,4]triazolo[1,5-a]pyridin-7-yl)-2,6-difluorophenoxy)-2-(4-chlorophenyl)-3,3-difluoropentan-2-ol] | 9.40 | –
Nc1nc2cc(-c3cc(F)c(F)c(OCCC(F)C(O)c4ccc(F)cc4)c3)ccn2n1 (single isomer, unassigned) [Example 116, 4-(5-(2-amino-[1,2,4]triazolo[1,5-a]pyridin-7-yl)-2,3-difluorophenoxy)-2-fluoro-1-(4-fluorophenyl)butan-1-ol] | 7.26 | –
CC(O)(c1ccc(F)cc1)C(F)CCOc1cccc(-c2ccn3nc(N)nc3c2)c1F (single isomer, unassigned) [Example 89, 5-(3-(2-amino-[1,2,4]triazolo[1,5-a]pyridin-7-yl)-2-fluorophenoxy)-3-fluoro-2-(4-fluorophenyl)pentan-2-ol] | 7.82 | –
Cc1ccc(-c2ccn3nc(N)nc3c2)c(F)c1OCCC(F)C(F)(F)c1ccc(F)cc1 (single isomer, unassigned) [Example 121, 7-(2-fluoro-4-methyl-3-(3,4,4-trifluoro-4-(4-fluorophenyl)butoxy)phenyl)-[1,2,4]triazolo[1,5-a]pyridin-2-amine] | 7.05 | –
CC(O)(c1ccc(F)cc1)C(F)(F)CCOc1c(C(F)F)ccc(-c2ccn3nc(N)nc3c2)c1F (single isomer, unassigned) [Example 25, 5-(3-(2-amino-[1,2,4]triazolo[1,5-a]pyridin-7-yl)-6-(difluoromethyl)-2-fluorophenoxy)-3,3-difluoro-2-(4-fluorophenyl)pentan-2-ol] | 8.82 | –
CC(O)(c1ccc(F)cc1)C(F)(F)CCOc1cc(F)cc(-c2ccn3nc(N)nc3c2)c1F (single isomer, unassigned) [Example 11, 5-(3-(2-amino-[1,2,4]triazolo[1,5-a]pyridin-7-yl)-2,5-difluorophenoxy)-3,3-difluoro-2-(4-fluorophenyl)pentan-2-ol] | 9.70 | –
CC(O)(c1ccc(F)cc1)C(F)CCOc1c(F)ccc(-c2ccn3nc(N)nc3c2)c1F (single isomer, unassigned) [Example 96, 5-(3-(2-amino-[1,2,4]triazolo[1,5-a]pyridin-7-yl)-2,6-difluorophenoxy)-3-fluoro-2-(4-fluorophenyl)pentan-2-ol] | 8.70 | –
CC(O)(c1ccc(F)cc1)C(F)(F)CCOc1cc(F)cc(-c2ccn3nc(N)nc3c2)c1F (single isomer, unassigned) [Example 10, 5-(3-(2-amino-[1,2,4]triazolo[1,5-a]pyridin-7-yl)-2,5-difluorophenoxy)-3,3-difluoro-2-(4-fluorophenyl)pentan-2-ol] | 9.00 | –
Nc1nc2cc(-c3cccc(OCCC(F)C(O)c4ccc(F)cc4)c3F)ccn2n1 (single isomer, unassigned) [Example 84, 4-(3-(2-amino-[1,2,4]triazolo[1,5-a]pyridin-7-yl)-2-fluorophenoxy)-2-fluoro-1-(4-fluorophenyl)butan-1-ol] | 8.49 | –
Cc1ccc(-c2ccn3nc(N)nc3c2)c(F)c1OCCC(F)C(O)c1ccc(F)cc1 (single isomer, unassigned) [Example 108, 4-(3-(2-amino-[1,2,4]triazolo[1,5-a]pyridin-7-yl)-2-fluoro-6-methylphenoxy)-2-fluoro-1-(4-fluorophenyl)butan-1-ol] | 8.62 | –
CC(O)(c1ccc(F)cc1)C(F)(F)CCOc1c(F)ccc(-c2ccc3nc(N)nn3c2)c1F (single isomer, unassigned) [Example 76, 5-(3-(2-amino-[1,2,4]triazolo[1,5-a]pyridin-6-yl)-2,6-difluorophenoxy)-3,3-difluoro-2-(4-fluorophenyl)pentan-2-ol] | 8.70 | –
CC(O)(c1ccccc1F)C(F)(F)CCOc1c(F)ccc(-c2ccn3nc(N)nc3c2)c1F (single isomer, unassigned) [Example 125, 5-(3-(2-amino-[1,2,4]triazolo[1,5-a]pyridin-7-yl)-2,6-difluorophenoxy)-3,3-difluoro-2-(2-fluorophenyl)pentan-2-ol] | 9.22 | –
Nc1nc2cc(-c3cccc(OCCC(F)(F)Oc4ccc(F)cc4)c3F)ccn2n1 [Example 65, 7-(3-(3,3-difluoro-3-(4-fluorophenoxy)propoxy)-2-fluorophenyl)-[1,2,4]triazolo[1,5-a]pyridin-2-amine] | – | 6.85
Nc1nc2cc(-c3cccc(OCCC(F)(F)Cc4ccccc4)c3F)ccn2n1 [Example 74, 7-(3-(3,3-difluoro-4-phenylbutoxy)-2-fluorophenyl)-[1,2,4]triazolo[1,5-a]pyridin-2-amine] | – | 8.30
Cc1ccc(-c2ccn3nc(N)nc3c2)c(F)c1OCCC(F)(F)C(C)(O)c1ccc(F)cc1 (single isomer, unassigned) [Example 64, 5-(3-(2-amino-[1,2,4]triazolo[1,5-a]pyridin-7-yl)-2-fluoro-6-methylphenoxy)-3,3-difluoro-2-(4-fluorophenyl)pentan-2-ol] | 10.00 | –
Nc1nc2cc(-c3cccc(OCCC(F)(F)COc4cc(Cl)ccn4)c3F)ccn2n1 [Example 1, 7-(3-(4-((4-chloropyridin-2-yl)oxy)-3,3-difluorobutoxy)-2-fluorophenyl)-[1,2,4]triazolo[1,5-a]pyridin-2-amine] | – | 6.85
COc1ccc(OCCC(F)(F)C(C)(O)c2ccc(F)cc2)c(F)c1-c1ccn2nc(N)nc2c1 (racemic) [Example 22, 5-(3-(2-amino-[1,2,4]triazolo[1,5-a]pyridin-7-yl)-2-fluoro-4-methoxyphenoxy)-3,3-difluoro-2-(4-fluorophenyl)pentan-2-ol] | – | 9.05
Nc1nc2cc(-c3ccc(Cl)c(OCCC(F)C(O)c4ccc(F)cc4)c3F)ccn2n1 (single isomer, unassigned) [Example 100, 4-(3-(2-amino-[1,2,4]triazolo[1,5-a]pyridin-7-yl)-6-chloro-2-fluorophenoxy)-2-fluoro-1-(4-fluorophenyl)butan-1-ol] | 8.22 | –
